Laboratory results reported in PubChem BioAssay (NCI).
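These data come from cells grown in 96-well plates and exposed to compound for 48 hours at five concentrations. TGI is the concentration that stops growth completely.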

Experiments:
Experiment in all cases: growth of human tumour cells (NCI), 48 h
786-0 renal = tested on: 786-0 renal
A498 renal = tested on: A498 renal
A549 NSCLC = tested on: A549 NSCLC
ACHN renal = tested on: ACHN renal
BT-549 breast = tested on: BT-549 breast
CAKI-1 renal = tested on: CAKI-1 renal
CCRF-CEM leukemia = tested on: CCRF-CEM leukemia
COLO 205 colon = tested on: COLO 205 colon
DU-145 prostate = tested on: DU-145 prostate
EKVX NSCLC = tested on: EKVX NSCLC
HCC-2998 colon = tested on: HCC-2998 colon
HCT-116 colon = tested on: HCT-116 colon
HCT-15 colon = tested on: HCT-15 colon
HL-60(TB) leukemia = tested on: HL-60(TB) leukemia
HOP-62 NSCLC = tested on: HOP-62 NSCLC
HOP-92 NSCLC = tested on: HOP-92 NSCLC
HS 578T breast = tested on: HS 578T breast
HT29 colon = tested on: HT29 colon
IGROV1 ovarian = tested on: IGROV1 ovarian
K-562 leukemia = tested on: K-562 leukemia
KM12 colon = tested on: KM12 colon
LOX IMVI melanoma = tested on: LOX IMVI melanoma
M14 melanoma = tested on: M14 melanoma
MALME-3M melanoma = tested on: MALME-3M melanoma
MCF7 breast = tested on: MCF7 breast
MDA-MB-231 breast = tested on: MDA-MB-231 breast
MDA-MB-435 = tested on: MDA-MB-435
MDA-N = tested on: MDA-N
MOLT-4 leukemia = tested on: MOLT-4 leukemia
NCI-H226 lung = tested on: NCI-H226 lung
NCI-H23 lung = tested on: NCI-H23 lung
NCI-H460 lung = tested on: NCI-H460 lung
NCI-H522 lung = tested on: NCI-H522 lung
NCI/ADR-RES ovarian = tested on: NCI/ADR-RES ovarian
OVCAR-3 ovarian = tested on: OVCAR-3 ovarian
OVCAR-4 ovarian = tested on: OVCAR-4 ovarian
OVCAR-5 ovarian = tested on: OVCAR-5 ovarian
OVCAR-8 ovarian = tested on: OVCAR-8 ovarian
PC-3 prostate = tested on: PC-3 prostate
RPMI-8226 leukemia = tested on: RPMI-8226 leukemia
RXF 393 renal = tested on: RXF 393 renal
SF-268 CNS = tested on: SF-268 CNS
SF-295 CNS = tested on: SF-295 CNS
SF-539 CNS = tested on: SF-539 CNS
SK-MEL-2 melanoma = tested on: SK-MEL-2 melanoma
SK-MEL-28 melanoma = tested on: SK-MEL-28 melanoma
SK-MEL-5 melanoma = tested on: SK-MEL-5 melanoma
SK-OV-3 ovarian = tested on: SK-OV-3 ovarian
SN12C renal = tested on: SN12C renal
SNB-19 CNS = tested on: SNB-19 CNS
SNB-75 CNS = tested on: SNB-75 CNS
SR leukemia = tested on: SR leukemia
SW-620 colon = tested on: SW-620 colon
T-47D breast = tested on: T-47D breast
TK-10 renal = tested on: TK-10 renal
U251 CNS = tested on: U251 CNS
UACC-257 melanoma = tested on: UACC-257 melanoma
UACC-62 melanoma = tested on: UACC-62 melanoma
UO-31 renal = tested on: UO-31 renal

N=C(N)SCCCN
TGI (786-0 renal): 66.1 µM
TGI (A498 renal): > 100 µM
TGI (A549 NSCLC): > 100 µM
TGI (ACHN renal): 26.5 µM
TGI (BT-549 breast): > 60.9 µM
TGI (CAKI-1 renal): > 69.9 µM
TGI (CCRF-CEM leukemia): 9.2 µM
TGI (COLO 205 colon): 29.5 µM
TGI (DU-145 prostate): 51.1 µM
TGI (EKVX NSCLC): > 91.4 µM
TGI (HCC-2998 colon): 20.3 µM
TGI (HCT-116 colon): 30.7 µM
TGI (HCT-15 colon): > 100 µM
TGI (HL-60(TB) leukemia): 7.75 µM
TGI (HOP-62 NSCLC): 35.7 µM
TGI (HOP-92 NSCLC): > 40.6 µM
TGI (HS 578T breast): 43.5 µM
TGI (HT29 colon): 62.3 µM
TGI (IGROV1 ovarian): 15.6 µM
TGI (K-562 leukemia): > 66.8 µM
TGI (KM12 colon): 59.6 µM
TGI (LOX IMVI melanoma): 13.6 µM
TGI (M14 melanoma): 14.2 µM
TGI (MALME-3M melanoma): 29.1 µM
TGI (MCF7 breast): > 59.9 µM
TGI (MDA-MB-231 breast): 12.1 µM
TGI (MDA-MB-435): 14 µM
TGI (MDA-N): 26 µM
TGI (MOLT-4 leukemia): 3.16 µM
TGI (NCI-H226 lung): 66 µM
TGI (NCI-H23 lung): 41.2 µM
TGI (NCI-H460 lung): 15.8 µM
TGI (NCI-H522 lung): 25.5 µM
TGI (NCI/ADR-RES ovarian): > 62.1 µM
TGI (OVCAR-3 ovarian): 30.5 µM
TGI (OVCAR-4 ovarian): > 30.9 µM
TGI (OVCAR-5 ovarian): > 100 µM
TGI (OVCAR-8 ovarian): > 100 µM
TGI (PC-3 prostate): 54.1 µM
TGI (RPMI-8226 leukemia): > 68.9 µM
TGI (RXF 393 renal): 26 µM
TGI (SF-268 CNS): 79.2 µM
TGI (SF-295 CNS): > 66.8 µM
TGI (SF-539 CNS): 30.9 µM
TGI (SK-MEL-2 melanoma): 32.2 µM
TGI (SK-MEL-28 melanoma): > 86 µM
TGI (SK-MEL-5 melanoma): 30.1 µM
TGI (SK-OV-3 ovarian): 73.4 µM
TGI (SN12C renal): 69.8 µM
TGI (SNB-19 CNS): > 82.7 µM
TGI (SNB-75 CNS): > 100 µM
TGI (SR leukemia): 23.5 µM
TGI (SW-620 colon): > 100 µM
TGI (T-47D breast): > 100 µM
TGI (TK-10 renal): 20.7 µM
TGI (U251 CNS): 24.6 µM
TGI (UACC-257 melanoma): 26 µM
TGI (UACC-62 melanoma): 35 µM
TGI (UO-31 renal): 37.5 µM
